# Key:
# α-synuclein toxicity = assay: S. cerevisiae α-synuclein toxicity model, growth assay; assay type: cell-based; settings: 50 μM
# Procedure: To screen small molecule library LOPAC1280 in S. cerevisiae SNCA toxicity model, working plates containing 50 μM drugs in 1.5% DMSO (190 compounds/plate) are prepared in a 384 well format. WT SNCA-GFP with or without small molecules and untreated WT GFP are grown under optimized conditions (80 μl, 30° C. and 420 rpm) for 36 h in a plate reader (Varioskan Flash, Thermo Scientific) in duplicates with automatic absorbance (A600) recording every 20 min. Growth curves of untreated WT GFP and WT SNCA-GFP strains are plotted and mid to late exponential phase time point of untreated WT GFP strain is chosen as reference for data analysis. Its corresponding time point of untreated and drug treated WT SNCA-GFP strains are plotted separately in a box plot. Small molecules that rescued the growth lag by ≥3 SD units of untreated WT SNCA-GFP strain are considered as ‘Hits’.
# Growth assays: In a 384 well plate, appropriate yeast strains are seeded (A600˜0.07) with and without drugs and incubated (80 μl, 30° C. and 420 rpm) in a multiplate reader (Varioskan Flash, Thermo Scientific) for 48 h with automatic absorbance (A600) recording every 20 min. Growth curves are plotted and analyzed using GraphPad Prism.
# Induction of α-synuclein-EGFP aggregates: To induce α-synuclein-EGFP aggregates, the corresponding strains are inoculated in SD-Ura medium, Secondary culture is inoculated from primary inoculum and incubated till A600 reaches 0.8/ml. Cells are washed twice with sterile water and aggregates are induced by adding SG-Ura for 12-16 h.
# To screen small molecule library LOPAC^1280 in S. cerevisiae α-synuclein toxicity model, working plates containing 50 μM drugs (small molecule) in 1.5% DMSO (190 compounds/plate) are prepared in a 384 well format. WT α-synuclein-EGFP with and without small molecules and untreated WT EGFP are grown under optimized conditions (80 μl, 30° C. and 420 rpm) for 36 h in a plate reader (Varioskan Flash, Thermo Scientific) in duplicates with automatic absorbance (A600) recording every 20 min.
# Growth curves of untreated WT EGFP and WI α-synuclein-EGFP strains are plotted and mid to late exponential phase time point of untreated WT EGFP strain is chosen as reference for data analysis. Its corresponding time point of untreated and drug treated WT α-synuclein-EGFP strains are plotted separately in a box plot.
# Appropriate yeast strains are seeded (A600 ˜0.07) with or without drugs in a 384-well plate and incubated (420 rpm, 30° C. and 80 μl) in a multiplate reader (Varioskan Flash, Thermo Scientific) for 48 h that records absorbance (A600) automatically for every 20 min. Growth curves are plotted using GraphPad Prism.
# GFP-Atg8 = GFP-Atg8 processing assay (general autophagy); assay type: cell-based, Saccharomyces cerevisiae
# Procedure: Saccharomyces cerevisiae strain containing the GFP-Atg8 (pRS 316 vector backbone) plasmid is grown in synthetic complete medium lacking uracil (SC-URA) under appropriate conditions (30° C. 250 rpm). From this, a secondary culture is inoculated at A600 nm=0.2 and grown as above until A600 nm reached ˜0.65. The cultures are transferred to SD-N (nitrogen starvation) medium at A600 nm=3, separately with and without the compounds, and samples are collected at different time intervals. Sample preparation is done by the TCA precipitation method and immunoblotting is performed using standard methods.
# Yeast strains (A600=3) are resuspended in trichloroacetic acid (12.5%) and stored at −80° C. for at least half an hour. Samples are thawed on ice, centrifuged (16000×g, 10 min) and pellet is washed twice with ice-cold acetone (80%). Pellets are air dried, resuspended in lysis (1% SDS and 0.1 N NaOH) solution and Laemmii buffer and boiled for 10 min.
# [1] = test system: HeLa cells (autophagosomes and autolysosomes); assay: Tandem RFP-GFP-LC3B (traffic light) assay in HeLa cells; assay type: cell-based, human
# Procedure: Transfection is done on a 60 mm dish with HeLa cells at 60-70% confluency. Cells were transfected with tandem RFP-GFP-MAP1LC3B construct (Addgene plasmid #21074) using 5 μl of Lipofectamine 2000 (11668-019, Invitrogen) and 2.5 μg of DNA (2:1 ratio) diluted in 100 μl of OPTI-MEM (31985-070, Invitrogen) separately. 72 hours after transfection cells are either left untreated or treatment with various concentrations of Bay11-7082 ZPCK is done for 2 hours. Starvation is induced by treating cells with Earle's balanced salt solution (EBBS). After treatment, cells are fixed in 4% paraformaldehyde and permeabilized using 0.25% Triton X-100, The coverslip is mounted with […] antifade reagent (H-1000, Vector laboratories). Imaging for HeLa cells is carried out using Delta vision microscope (Olympus 60×/1.4, Plan ApoN, excitation and emission filter Cy5, FITC and TRITC, polychroic Quad).
# For tandem RFP-EGFP-LC3 assay, sub-confluent cells are seeded in 60 mm dishes, transfected with ptf LC3 construct and allowed to express for 24 h. Later, cells are trypsinized, reseeded (10^5 cells) and allowed to attach on cover slips in a 12 well plate.
# For mammalian cell microscopy, after 2 h of treatment, coverslips are fixed using 4% paraformaldehyde (PFA) (Sigma) and permeabilized using Triton X-100 (0.2%, HiMedia). Coverslips are mounted using antifade, Vectashield (Vector laboratories). For antibody staining, coverslips are blocked in 5% BSA for 1 h, incubated in primary antibody overnight and subsequent probing with fluorescent conjugated antibody. Coverslips are mounted using antifade, Vectashield (Vector laboratories).
# Images are acquired using DeltaVisionElitewidefield microscope (API, GE) with following filters: DAPI (390/18 and 435/48), FITC (490/20 and 529/38), TRITC (542/27 and 594/45) and Cy5 (632/22 and 676/34). Images are processed using DV SoftWoRX software. Autophagosome (yellow) and autolysosome (red) are counted using Cell Counter plug-in in ImageJ software (NIH) and graphically represented as fold difference versus untreated (FIG. 3E).
# Sub-confluent HeLa and/or SH-SY5Y cells are seeded into 60 mm cell culture dishes, then transfected with ptf LC3 construct and/or siRNA and allowed to express for 48 h. Cells are trypsinized, seeded again on poly-D-lysine coated cover slips in a 12 or 24 well plates and allowed to attach. After appropriate treatments, the coverslips containing cells are processed for imaging. For immunofluorescent antibody staining, the cover slips are incubated in primary antibody at 4° C. for overnight followed by secondary antibody incubation at room temperature.
# For imaging the mammalian cells, after appropriate treatments, coverslips containing cells are fixed using 4% paraformaldehyde (PFA) (Sigma) and then permeabilized using Triton X-100 (0.2%, HiMedia). On slide, coverslips are mounted using antifade, Vectashield mounting medium (Vector laboratories). For antibody staining, coverslips are blocked using 5% BSA for 1 h at room temperature, then incubated with primary antibody at 4° C., overnight and then subsequently probed with corresponding fluorescent dye conjugated secondary antibody.
# [2] = starvation, 4 h and 6 h, 50 μM, versus untreated
# [3] = HeLa, 2 h, 2.5 μM Bay11, 25 μM ZPCK
# [4] = HeLa, ERRα Flag transfected 48 h, 5 μM, 2 h
compound,measurement,setting,value
"O=C1Nc2cc(Br)ccc2/C1=C1/Nc2ccccc2/C1=N\O [6-Bio, (2′Z,3′E)-6-Bromoindirubin-3′-oxime]",rescue of growth lag due to α-synuclein toxicity,α-synuclein toxicity; WT α-synuclein-EGFP strain,rescues the growth lag
same,rescue of growth lag in autophagy mutants expressing α-synuclein,"α-synuclein toxicity; atg1Δ, atg5Δ, atg8Δ, atg11Δ and atg15Δ",fails to rescue growth lag
same,"autophagy induction / flux, growth condition","GFP-Atg8; growth condition, 6 h, 50 μM",dramatically induces autophagy
same,"increase in autophagic flux, growth condition","GFP-Atg8; growth condition, 50 μM, versus untreated",approximately 3 fold
same,"increase in autophagic flux, starvation condition",GFP-Atg8; [2],2 fold
same,"increase in autophagy induction, starvation condition",GFP-Atg8; [2],2 fold
same,fusion between autophagosomes and lysosomes at 16° C.,"[1]; HeLa, 16° C. (endocytosis reduced), control vs treated",~8 fold
same,fusion between autophagosomes and lysosomes at 37° C.,"[1]; HeLa, 37° C., control vs treated",~10 fold
same,autolysosomes in GSK3B silenced cells vs only treated cells,[1]; shRNA GSK3B silenced cells,significantly reduced
"Cc1ccc(S(=O)(=O)/C=C/C#N)cc1 [Bay11, 3-[(4-methylphenyl)sulfonyl]-(2E)-propenenitrile]","GFP-Atg8 labelled autophagosomes, fluorescence microscopy",GFP-Atg8; starvation,accumulation of punctate structures outside the vacuole
same,release of GFP from GFP-Atg8 (general autophagy),GFP-Atg8; starvation,slower release of GFP
same,number of autolysosomes (mRFP+/GFP− puncta),[1]; [3],decreased
same,number of autophagosomes (mRFP+/GFP+ puncta),[1]; [3],decreased the number of autophagosomes
same,step of action relative to Bafilomycin A1 (BFA),"[1]; HeLa, with Bafilomycin A1 (400 nM)",step prior to BFA action
"COc1cc(C=C(C#N)C(=O)Nc2nnc(C(F)(F)F)s2)ccc1OCc1ccc(C(F)(F)F)cc1C(F)(F)F [XCT 790, 3-[4-(2,4-Bis-trifluoromethylbenzyloxy)-3-methoxyphenyl]-2-cyano-N-(5-trifluoromethyl-1,3,4-thiadiazol-2-yl)acrylamide]","rescue of growth lag, treated vs untreated",α-synuclein toxicity; WT α-syn cells,~3.2 fold
same,"autolysosome numbers, fold vs control","[1]; HeLa, 5 μM, 2 h",~2 fold
same,"autophagosomes, fold vs control","[1]; HeLa, 5 μM, 2 h",~5 fold
same,"less autolysosomes in ERRα over expressed cells, vs untreated",[1]; [4],~2 fold
same,"more autophagosomes in ERRα over expressed cells, vs untreated",[1]; [4],~2 fold

# — patent US20180369186A1, “METHOD FOR MODULATING AUTOPHAGY AND APPLICATIONS THEREOF” (JAWAHARLAL NEHRU CENTRE FOR ADVANCED SCIENTIFIC RESEARCH, priority 2015, published 2018)
